Laboratory results published in US7238694B2, “Rifamycin imino derivatives effective against drug-resistant microbes” (Cumbre Pharmaceuticals, Inc., priority 2004, dated 2007).
In brackets after ≈: the same amount, converted by molar mass.

Key:
Type in all cases: cell-based
[1] = test system: Staphylococcus aureus ATCC29213; assay: MIC, microbroth dilution (NCCLS); conditions: rifS strain, Cation-Adjusted Mueller-Hinton Broth, 37° C., read-out: MIC
[2] = test system: Staphylococcus aureus MT1222 gyrA^A116E grlB^S80F; assay: microbe, parasite or virus in culture; conditions: cipR strain, Cation-Adjusted Mueller-Hinton Broth, 37° C., read-out: MIC
[3] = test system: Staphylococcus epidermidis ATCC12228; assay: MIC, microbroth dilution (NCCLS); conditions: rifS strain, Cation-Adjusted Mueller-Hinton Broth, 37° C., read-out: MIC
[4] = test system: Streptococcus pneumoniae ATCC6303; assay: MIC, microbroth dilution (NCCLS); conditions: rifS strain, THY Broth with 1 mg/mL catalase, 5% CO2, 37° C., read-out: MIC
[5] = test system: Streptococcus pyogenes ATCC19615; assay: MIC, microbroth dilution (NCCLS); conditions: rifS strain, THY Broth, 37° C., read-out: MIC
[6] = test system: Staphylococcus aureus ATCC29213 rpoB^H418Y; assay: microbe, parasite or virus in culture; conditions: Staphylococcus aureus, ATCC29213; rifR strain; Cation-Adjusted Mueller-Hinton Broth, 37° C.; read-out: MIC
[7] = test system: Haemophilus influenzae ATCC10211; assay: MIC, microbroth dilution (NCCLS); conditions: rifS strain, BHI Broth with NAD and hematin, 37° C., read-out: MIC

| Compound | MIC [1] [µg/mL] | MIC [2] [µg/mL] | MIC [3] [µg/mL] | MIC [4] [µg/mL] | MIC [5] [µg/mL] | MIC [6] [µg/mL] | MIC [7] [µg/mL] |
| --- | --- | --- | --- | --- | --- | --- | --- |
| COc1c(N2CCC(C(C)NC3CCN(/N=C/c4c5c(O)c6c(O)c(C)c7c(c6c4O)C(=O)[C@@](C)(O/C=C/[C@H](OC)[C@@H](C)[C@@H](OC(C)=O)[C@H](C)[C@H](O)[C@H](C)[C@@H](O)[C@@H](C)/C=C/C=C(/C)C(=O)N5)O7)CC3)C2)c(F)cc2c(=O)c(C(=O)O)cn(C3CC3)c12 (mixture of isomers) [Example 41, 3-{4-[1-(3-Carboxy-1-cyclopropyl-6-fluoro-8-methoxy-4-oxo-1,4-dihydroquinolin-7-yl)-pyrrolidin-3-yl-ethylamino]-piperidin-1-yl-aminomethylenyl}-rifamycin SV] | 0.008 to 1 | 0.008 to 0.125 | 0.008 to 0.1 | 0.008 to 0.06 | 0.008 to 0.03 | 0.06 to 16 | 0.125 to 4 |
| CO[C@H]1/C=C/O[C@@]2(C)Oc3c(C)c(O)c4c(O)c(c(/C=N/NC5CCN(c6c(F)cc7c(=O)c(C(=O)O)cn(C8CC8)c7c6Cl)C5)c(O)c4c3C2=O)NC(=O)/C(C)=C\C=C\[C@H](C)[C@H](O)[C@@H](C)[C@@H](O)[C@@H](C)[C@H](OC(C)=O)[C@@H]1C (mixture of isomers) [Example 6, (R/S)-3-[1-(8-chloro-3-carboxy-1-cyclopropyl-6-fluoro-4-oxo-1,4-dihydroquinolin-7-yl)-pyrrolidin-3-ylhydrazinomethylenyl]rifamycin SV] | 0.008 to 1 (≈ 0.00735 to 0.919 µM) | 0.008 to 0.125 (≈ 0.00735 to 0.115 µM) | 0.008 to 0.1 (≈ 0.00735 to 0.0919 µM) | 0.008 to 0.06 (≈ 0.00735 to 0.0551 µM) | 0.008 to 0.03 (≈ 0.00735 to 0.0276 µM) | 0.06 to 16 (≈ 0.0551 to 14.7 µM) | 0.125 to 4 (≈ 0.115 to 3.67 µM) |
| COc1c(N2CCN(/N=C/c3c4c(O)c5c(O)c(C)c6c(c5c3O)C(=O)[C@@](C)(O/C=C/[C@H](OC)[C@@H](C)[C@@H](OC(C)=O)[C@H](C)[C@H](O)[C@H](C)[C@@H](O)[C@@H](C)/C=C/C=C(/C)C(=O)N4)O6)C(C)C2)c(F)cc2c(=O)c(C(=O)O)cn(C3CC3)c12 (mixture of isomers) [Example 7, (R/S)-3-[4-(3-Carboxy-1-cyclopropyl-6-fluoro-8-methoxy-4-oxo-1,4-dihydroquinolin-7-yl)-2-methyl-piperazin-1-yl-aminomethylenyl]rifamycin SV] | 0.008 to 1 (≈ 0.00728 to 0.911 µM) | 0.008 to 0.125 (≈ 0.00728 to 0.114 µM) | 0.008 to 0.1 (≈ 0.00728 to 0.0911 µM) | 0.008 to 0.06 (≈ 0.00728 to 0.0546 µM) | 0.008 to 0.03 (≈ 0.00728 to 0.0273 µM) | 0.06 to 16 (≈ 0.0546 to 14.6 µM) | 0.125 to 4 (≈ 0.114 to 3.64 µM) |
| CCn1cc(C(=O)O)c(=O)c2cc(F)c(N3CCN(/N=C/c4c5c(O)c6c(O)c(C)c7c(c6c4O)C(=O)[C@@](C)(O/C=C/[C@H](OC)[C@@H](C)[C@@H](OC(C)=O)[C@H](C)[C@H](O)[C@H](C)[C@@H](O)[C@@H](C)/C=C/C=C(/C)C(=O)N5)O7)C(C)C3)c(F)c21 (mixture of isomers) [Example 8, (R/S)-3-[4-(3-Carboxy-1-ethyl-6,8-difluoro-8-4-oxo-1,4-dihydroquinolin-7-yl)-2-methyl-piperazin-1-yl-aminomethylenyl]rifamycin SV] | 0.008 to 1 (≈ 0.00745 to 0.931 µM) | 0.008 to 0.125 (≈ 0.00745 to 0.116 µM) | 0.008 to 0.1 (≈ 0.00745 to 0.0931 µM) | 0.008 to 0.06 (≈ 0.00745 to 0.0559 µM) | 0.008 to 0.03 (≈ 0.00745 to 0.0279 µM) | 0.06 to 16 (≈ 0.0559 to 14.9 µM) | 0.125 to 4 (≈ 0.116 to 3.72 µM) |
| CO[C@H]1/C=C/O[C@@]2(C)Oc3c(C)c(O)c4c(O)c(c(/C=N/NC5CCN(c6nc7c(cc6F)c(=O)c(C(=O)O)cn7-c6ccc(F)cc6F)C5)c(O)c4c3C2=O)NC(=O)/C(C)=C\C=C\[C@H](C)[C@H](O)[C@@H](C)[C@@H](O)[C@@H](C)[C@H](OC(C)=O)[C@@H]1C (mixture of isomers) [Example 9, (R/S)-3-[1-[3-Carboxy-1-(2,4-difluoro-phenyl)-6-fluoro-4-oxo-1,4-dihydro-[1,8]naphthyridin-7-yl]-pyrrolidinyl-3-hydrazinomethylenyl]rifamycin SV] | 0.008 to 1 (≈ 0.0071 to 0.887 µM) | 0.008 to 0.125 (≈ 0.0071 to 0.111 µM) | 0.008 to 0.1 (≈ 0.0071 to 0.0887 µM) | 0.008 to 0.06 (≈ 0.0071 to 0.0532 µM) | 0.008 to 0.03 (≈ 0.0071 to 0.0266 µM) | 0.06 to 16 (≈ 0.0532 to 14.2 µM) | 0.125 to 4 (≈ 0.111 to 3.55 µM) |
| CO[C@H]1/C=C/O[C@@]2(C)Oc3c(C)c(O)c4c(O)c(c(/C=N/N(C5CCN(C)CC5)C5CCN(c6cc7c(cc6F)c(=O)c(C(=O)O)cn7C6CC6)C5)c(O)c4c3C2=O)NC(=O)/C(C)=C\C=C\[C@H](C)[C@H](O)[C@@H](C)[C@@H](O)[C@@H](C)[C@H](OC(C)=O)[C@@H]1C (mixture of isomers) [Example 11, (R/S)-3-[1-(3-Carboxy-1-cyclopropyl-6-fluoro-4-oxo-1,4-dihydroquinolin-7-yl)-pyrrolidin-3-yl-N′-(1-methyl-piperidin-4-yl)-hydrazinomethylenyl]rifamycin SV] | 0.008 to 1 (≈ 0.00695 to 0.869 µM) | 0.008 to 0.125 (≈ 0.00695 to 0.109 µM) | 0.008 to 0.1 (≈ 0.00695 to 0.0869 µM) | 0.008 to 0.06 (≈ 0.00695 to 0.0521 µM) | 0.008 to 0.03 (≈ 0.00695 to 0.0261 µM) | 0.06 to 16 (≈ 0.0521 to 13.9 µM) | 0.125 to 4 (≈ 0.109 to 3.47 µM) |
